From patent publication US8722013B2, “Use of R(+)-alpha-lipoic acid for cryptogenic neuropathy” (Encrypta GmbH, priority 2007, dated 2014)
Where a name gives a salt, the structure may show the parent alone.

Assays:
diabetic polyneuropathy = details: cited from earlier work
uremic neuropathy = details: cited from earlier work
cryptogenic neuropathy [1] = details: in vivo; cited from earlier work
cryptogenic neuropathy [2] = assay: Case reports: patients with cryptogenic neuropathy treated with R-LA; type: in vivo, human
Protocol: A patient with cryptogenic neuropathy was treated with an agent according to the present invention. For that purpose a daily oral dose of 50 mg of R-LA (s.d.) was given over a time period of 8 weeks in a customary multivitamin presentation form. The disease is presented by a loss of sensory perception in the feet and a severe impairment of perspiration.
A patient with cryptogenic neuropathy was treated with an agent according to the present invention. For that purpose a daily oral dose of 50 mg of R-LA (s.d.) was given over a time period of 12 weeks.
A patient with cryptogenic neuropathy was treated with an agent according to the present invention. For that purpose 50 mg of R-LA (s.d.) in an oral multivitamin preparation together with γ-linolenic acid was given. The administration was at first 2 times a day for 6 weeks and then 1 time a day. The lost sensation in the tips of the fingers and toes (Semmes Weinstein monofilament) recovered after 4 weeks.
A patient with cryptogenic neuropathy was treated with an agent according to the present invention. For that purpose a daily oral dose of 100 mg of R-LA as Na salt was given over a time period of 8 weeks. The incontinence and also the control over the bladder were improved after 3 weeks.
A patient with cryptogenic neuropathy was treated with an agent according to the present invention. For that purpose at first a dose of 300 mg of R-LA (Na salt) was given 1 time a day over a time period of 2 weeks and then a dose of 100 mg was given 1 time a day over a time period of 6 weeks. Due to inconsequent taking of the dose on average the agent was only administered every second day. The dryness of the eyes has not changed during the first 3 weeks, but after 4 weeks the use of eye drops was reduced.
A patient with cryptogenic neuropathy was treated with an agent according to the present invention. For that purpose at first a daily oral dose of 100 mg of R-LA was given over a time period of one week and then a reduction to a dose of 50 mg for 6 weeks with continuous co-medication of gabapentin followed.
A patient with cryptogenic neuropathy was treated with an agent according to the present invention. For that purpose at first a daily oral dose of 100 mg of R-LA was given over a time period of two weeks. Then a reduction to a dose of 50 mg followed which was continued over 3 weeks. Subsequently the treatment was continued with the administration of 25 mg over further 3 weeks. […] Sharp pain which occurred occasionally was unchanged.
A patient with cryptogenic neuropathy was treated with an agent according to the present invention. For that purpose at first a daily oral dose of 100 mg of R-LA was given over a time period of four weeks. Then an anti-oxidative multivitamin preparation together with 50 mg of R-LA was given over 4 weeks.
A patient with cryptogenic neuropathy was treated with an agent according to the present invention. For that purpose at first a daily oral dose of 50 mg of R-LA was given over a time period of six weeks. Then an anti-oxidative multivitamin preparation without R-LA was given orally over 4 weeks. The patient suffered from numbness and the loss of sensory perception in the lower limbs. Due to a possible immunologic background ibuprofen was given as a long-term medication. […] The heart pains during stair climbing disappeared.
A patient with cryptogenic neuropathy was treated with an agent according to the present invention. For that purpose a daily dose of 300 mg of R-LA was given over a time period of four weeks together with a continued administration of a vitamin B-combination medication. […] Stomach pain and feeling of abdominal fullness were improved at the end of that period.
A patient with cryptogenic neuropathy was treated with an agent according to the present invention. For that purpose a daily oral dose of 400 mg of R-LA (K salt) was given over a time period of one week. […] 3 months later a formulation of 100 mg (Na salt) was given. […]

[3] = Example 1, 50 mg daily oral (s.d.) in multivitamin presentation form, after 8 weeks
[4] = Example 9, 50 mg daily oral over six weeks, ibuprofen long-term medication
[5] = Example 11, 400 mg daily oral (K salt) over one week

O=C(O)CCCCC1CCSS1 (racemic) [rac-LA, 5-(1,2-dithiolan-3-yl)valeric acid]
efficacy in controlled clinical trials (diabetic polyneuropathy; human, in vivo): negative | efficacy in first short-time pilot study (ALADIN Study) (diabetic polyneuropathy; i.v. treatment, 3-week multicentre randomized controlled trial): verified the historic impressions of the efficacy | neuropathic deficits (diabetic polyneuropathy; oral long-term therapy): appeared to deteriorate | efficacy in pivotal placebo-controlled double-blind multicentre trials (ALADIN II, ALADIN III) (diabetic polyneuropathy; short-term use (i.v.) or long-term use (p.o.)): could not be reproduced | result of first clinical trial (uremic neuropathy): negative results

C[C@]12CCC(=O)C=C1CC[C@@H]1[C@@H]2C(=O)C[C@@]2(C)[C@H]1CC[C@]2(O)C(=O)CO [cortisone]
outcome of therapy of cryptogenic neuropathy (cryptogenic neuropathy [1]): unsuccessful

O=C(O)CCCC[C@@H]1CCSS1 [R-LA (Na salt)]
incontinence and control over the bladder (cryptogenic neuropathy [2]; Example 4, 100 mg daily oral as Na salt, after 3 weeks): improved | chronic obstipation (cryptogenic neuropathy [2]; Example 4, 100 mg daily oral as Na salt, after 5 weeks): no longer a problem | stool frequency (cryptogenic neuropathy [2]; Example 4, 100 mg daily oral as Na salt, after 5 weeks, 2 to 3 times a week before): 5 times a week | dryness of the eyes (cryptogenic neuropathy [2]; Example 5, 300 mg 1 time a day for 2 weeks, then 100 mg for 6 weeks (on average taken every second day), first 3 weeks): not changed | feeling of burning in the feet (cryptogenic neuropathy [2]; Example 5, 300 mg for 2 weeks, then 100 mg, after 3 weeks): reduced after 3 weeks (from severe to moderate) | use of eye drops (cryptogenic neuropathy [2]; Example 5, 300 mg for 2 weeks, then 100 mg, after 4 weeks): reduced | feeling of burning in the feet (cryptogenic neuropathy [2]; Example 5, during the weeks following week 3): unchanged

O=C(O)CCCC[C@@H]1CCSS1 [R-LA, (R)-5-(1,2-dithiolan-3-yl)valeric acid]
perspiration (cryptogenic neuropathy [2]; [3]): moderately improved | sensory perception in the feet (cryptogenic neuropathy [2]; [3]): moderately improved | feeling of burning and tingling in the feet and hands (cryptogenic neuropathy [2]; Example 2, 50 mg daily oral (s.d.) over 12 weeks): improved moderately | symptoms after the termination of the treatment (cryptogenic neuropathy [2]; Example 2, after 12 weeks of 50 mg daily oral): became worse again | lost sensation in the tips of the fingers and toes (Semmes Weinstein monofilament) (cryptogenic neuropathy [2]; Example 3, 50 mg in oral multivitamin preparation with γ-linolenic acid, 2 times a day, after 4 weeks): recovered | function improvement on halving of the dose (cryptogenic neuropathy [2]; Example 3, 2 times a day for 6 weeks, then 1 time a day): not influenced | neurological pain in the feet (cryptogenic neuropathy [2]; Example 6, 100 mg daily oral for one week, then 50 mg for 6 weeks, co-medication of gabapentin): unchanged | perception of pain stimulus with a needle at the feet (cryptogenic neuropathy [2]; Example 6, 100 mg for one week, then 50 mg, gabapentin co-medication, after 3 weeks, not perceived at first): perceived moderately | feeling of burning in the feet (cryptogenic neuropathy [2]; Example 7, 100 mg daily oral for two weeks, then 50 mg, after 3 weeks): improved from severe to moderate | sharp pain which occurred occasionally (cryptogenic neuropathy [2]; Example 7, 100 mg for 2 weeks, 50 mg for 3 weeks, 25 mg for 3 weeks): unchanged | feeling of burning in the feet (cryptogenic neuropathy [2]; Example 7, 100 mg for two weeks, then 50 mg for 3 weeks, after 5 weeks): disappeared completely | feeling of burning in the feet (cryptogenic neuropathy [2]; Example 8, 100 mg daily oral, after 2 weeks): improved from severe to moderate | feeling of burning in the feet (cryptogenic neuropathy [2]; Example 8, 100 mg for four weeks, then anti-oxidative multivitamin preparation with 50 mg, after 6 weeks): became worse again | heart pains during stair climbing (cryptogenic neuropathy [2]; [4]): disappeared | numbness (cryptogenic neuropathy [2]; [4]): unchanged | sensory perception in the lower limbs (cryptogenic neuropathy [2]; Example 9, 50 mg daily oral, ibuprofen long-term medication, after 3 weeks, then stable): improved from severe to moderate | sensory perception after termination of R-LA (cryptogenic neuropathy [2]; Example 9, 3 weeks after the termination of the administration): became worse again | perception of pain stimulus at the feet by means of a sharp needle (cryptogenic neuropathy [2]; Example 10, 300 mg daily with vitamin B-combination medication, after 2 weeks): perceived again | stomach pain and feeling of abdominal fullness (cryptogenic neuropathy [2]; Example 10, 300 mg daily with vitamin B-combination medication, at the end of four weeks): improved | dryness at the feet (cryptogenic neuropathy [2]; Example 12, 100 mg twice a day, after 2 weeks): improved | dryness at the hands (cryptogenic neuropathy [2]; Example 12, 100 mg twice a day, after 3 weeks): improved

O=C(O)CCCC[C@@H]1CCSS1 [R-LA (K salt)]
hyperhidrosis at the face (cryptogenic neuropathy [2]; [5]): not disappeared | sensory perception in the lower limbs (cryptogenic neuropathy [2]; [5]): improved from severe to moderate
